ChEMBL document CHEMBL5137033, “Development of sulfonamide-based NLRP3 inhibitors: Further modifications and optimization through structure-activity relationship studies” (Eur J Med Chem, 2022)

Tests used:
[1] = molecular target: T1, NACHT, LRR and PYD domains-containing protein 3 (Mus musculus, UniProt Q8R4B8); assay: Inhibition of NLRP3 inflammasome in LPS-primed mouse J774.A1 cells assessed as reduction in IL-1beta secretion preincubated for 30 mins followed by ATP addition and measured after 30 mins by ELISA; type: cell-based
J774.A1 = assay: (§1) Cytotoxicity against mouse J774.A1 cells assessed as cell viability at 10 uM incubated for 4 hrs by MTT assay relative to control; type: toxicity, cell-based; details: j774.a1, 4 h, 10 µM
HEK293 = assay: (§2) Cytotoxicity against HEK293 cells assessed as cell viability at 10 uM incubated for 4 hrs by MTT assay relative to control; type: toxicity, cell-based; details: human, hek293, 4 h, 10 µM
[2] = molecular target: NLR family CARD domain-containing protein 4 (Mus musculus) (UniProt Q3UP24); assay: Inhibition of NLRC4 inflammasome in LPS-primed mouse J774.A1 cells assessed as IL-1beta secretion at 10 uM preincubated for 1 hr followed by flagellin addition and measured after 6 hrs by ELISA relative to control; type: cell-based; design: scale not given: the % may be the effect or the level left; details: time 7.0 hrs
[3] = molecular target: T2, Interferon-inducible protein AIM2 (Mus musculus) (UniProt Q91VJ1); assay: Inhibition of AIM2 inflammasome in LPS-primed mouse J774.A1 cells assessed as IL-1beta secretion at 10 uM preincubated for 1 hr followed by poly(dA:dT) addition and measured after 4 hrs by ELISA relative to control; type: cell-based; design: scale not given: the % may be the effect or the level left; details: time 5.0 hrs
T2 sequence (whole entry): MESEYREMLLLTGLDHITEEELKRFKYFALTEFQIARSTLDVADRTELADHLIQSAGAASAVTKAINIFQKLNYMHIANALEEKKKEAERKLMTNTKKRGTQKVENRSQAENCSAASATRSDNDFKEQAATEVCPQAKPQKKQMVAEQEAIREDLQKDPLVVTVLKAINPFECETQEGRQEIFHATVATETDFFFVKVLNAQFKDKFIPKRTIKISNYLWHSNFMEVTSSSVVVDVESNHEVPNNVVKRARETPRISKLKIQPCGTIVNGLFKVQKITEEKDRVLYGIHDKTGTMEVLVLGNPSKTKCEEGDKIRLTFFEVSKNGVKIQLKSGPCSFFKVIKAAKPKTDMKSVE

[4] = as §1; type: toxicity, cell-based; details: J774.A1 cells, read-out: Activity
[5] = as §2; type: toxicity, cell-based; details: human, HEK293 cells, read-out: Activity
[6] = molecular target: NLR family CARD domain-containing protein 4 (Mus musculus, UniProt Q3UP24); assay: Inhibition of NLRC4 inflammasome in LPS-primed mouse J774.A1 cells assessed as reduction in IL-1beta secretion preincubated for 1 hr followed by flagellin addition and measured after 6 hrs by ELISA; type: cell-based
[7] = molecular target: T3, Interferon-inducible protein AIM2 (Mus musculus, UniProt Q91VJ1); assay: Inhibition of AIM2 inflammasome in LPS-primed mouse J774.A1 cells assessed as reduction in IL-1beta secretion preincubated for 1 hr followed by poly(dA:dT) addition and measured after 4 hrs by ELISA; type: cell-based
T3 sequence (Q91VJ1 whole entry): T2 sequence (whole entry)

[8] = molecular target: T1, NACHT, LRR and PYD domains-containing protein 3; assay: Inhibition of NLRP3 inflammasome in LPS-primed mouse BMDM cells assessed as reduction in IL-1beta secretion preincubated for 30 mins followed by ATP addition and measured after 30 mins by ELISA; type: cell-based
[9] = molecular target: NACHT, LRR and PYD domains-containing protein 3 (Homo sapiens, UniProt Q96P20); assay: Binding affinity to human recombinant full length NLRP3 transfected in HEK293F cells assessed as dissociation constant incubated for 40 mins by microscale thermophoresis analysis
[10] = Inhibition of IL-1beta production in C57BL/6 mouse assessed as reduction in IL-1beta level in serum at 10 mg/kg, ip pretreated with compound followed by LPS addition and measured after 2.5 hrs by ELISA; type: functional
[11] = Drug uptake in iv dosed C57BL/6 mouse brain measured after 60 mins by PET/CT imaging analysis; type: ADME, organism-based; details: in vivo, 1 h
[12] = Drug uptake in iv dosed C57BL/6 mouse brain striatum measured after 60 mins by PET/CT imaging analysis; type: ADME, organism-based; details: in vivo, 1 h
[13] = Drug uptake in iv dosed C57BL/6 mouse brain cortex measured after 60 mins by PET/CT imaging analysis; type: ADME, organism-based; details: in vivo, 1 h
[14] = Drug uptake in iv dosed C57BL/6 mouse brain thalamus measured after 60 mins by PET/CT imaging analysis; type: ADME, organism-based; details: in vivo, 1 h
[15] = Drug uptake in iv dosed C57BL/6 mouse brain cerebellum measured after 60 mins by PET/CT imaging analysis; type: ADME, organism-based; details: in vivo, 1 h
[16] = Drug uptake in iv dosed C57BL/6 mouse Brainstem measured after 60 mins by PET/CT imaging analysis; type: ADME, organism-based; details: in vivo, 1 h
[17] = Drug uptake in iv dosed C57BL/6 mouse Midbrain measured after 60 mins by PET/CT imaging analysis; type: ADME, organism-based; details: in vivo, 1 h
[18] = Drug uptake in iv dosed C57BL/6 mouse hippocampus measured after 60 mins by PET/CT imaging analysis; type: ADME, organism-based; details: in vivo, 1 h
[19] = Drug uptake in iv dosed C57BL/6 mouse blood measured after 1 min by PET/CT imaging analysis; type: ADME, organism-based; details: in vivo
[20] = Drug uptake in iv dosed C57BL/6 mouse lung measured after 1 min by PET/CT imaging analysis; type: ADME, organism-based; details: in vivo
[21] = Drug uptake in iv dosed C57BL/6 mouse liver measured after 3 min by PET/CT imaging analysis; type: ADME, organism-based; details: in vivo, 0.05 h
[22] = Drug uptake in iv dosed C57BL/6 mouse kidney measured after 3 min by PET/CT imaging analysis; type: ADME, organism-based; details: in vivo, 0.05 h
[23] = Uptake in iv dosed C57BL/6 mouse kidney measured after 60 mins; details: in vivo, 1 h
[24] = Drug uptake in iv dosed C57BL/6 mouse lung measured after 60 mins; details: in vivo, 1 h
[25] = Drug uptake in iv dosed C57BL/6 mouse blood measured after 60 mins; details: in vivo, 1 h
[26] = Drug uptake in iv dosed C57BL/6 mouse liver measured after 60 mins; details: in vivo, 1 h

T1 sequence (Q8R4B8 whole entry, the tested form may be a part): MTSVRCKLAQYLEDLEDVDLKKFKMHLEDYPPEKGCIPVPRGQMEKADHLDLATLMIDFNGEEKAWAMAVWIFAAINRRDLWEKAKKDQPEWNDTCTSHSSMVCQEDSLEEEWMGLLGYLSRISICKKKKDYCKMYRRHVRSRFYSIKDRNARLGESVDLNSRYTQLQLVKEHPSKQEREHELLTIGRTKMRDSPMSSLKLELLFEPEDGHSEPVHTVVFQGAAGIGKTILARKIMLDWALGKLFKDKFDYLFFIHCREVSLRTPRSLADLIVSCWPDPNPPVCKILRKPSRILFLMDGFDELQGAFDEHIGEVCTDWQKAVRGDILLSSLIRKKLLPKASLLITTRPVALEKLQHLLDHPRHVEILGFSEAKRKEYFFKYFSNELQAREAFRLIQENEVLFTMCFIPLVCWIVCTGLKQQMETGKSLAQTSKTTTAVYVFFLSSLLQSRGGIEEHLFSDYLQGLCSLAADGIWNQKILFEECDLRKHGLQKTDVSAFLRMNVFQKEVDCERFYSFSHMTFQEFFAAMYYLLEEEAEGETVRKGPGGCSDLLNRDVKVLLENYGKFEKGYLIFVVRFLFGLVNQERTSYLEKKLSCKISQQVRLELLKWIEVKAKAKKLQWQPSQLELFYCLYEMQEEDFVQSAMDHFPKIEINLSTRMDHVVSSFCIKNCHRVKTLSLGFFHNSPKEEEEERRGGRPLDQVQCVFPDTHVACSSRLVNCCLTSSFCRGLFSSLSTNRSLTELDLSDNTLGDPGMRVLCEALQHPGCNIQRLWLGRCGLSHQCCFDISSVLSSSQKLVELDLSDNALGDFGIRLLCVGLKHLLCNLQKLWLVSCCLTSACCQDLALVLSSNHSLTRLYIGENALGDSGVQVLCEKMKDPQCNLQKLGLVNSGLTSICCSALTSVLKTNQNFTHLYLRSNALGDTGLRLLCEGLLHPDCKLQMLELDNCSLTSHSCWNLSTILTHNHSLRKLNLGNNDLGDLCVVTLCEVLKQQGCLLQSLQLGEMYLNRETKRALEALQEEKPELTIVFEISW
NLR family CARD domain-containing protein 4, sequence (Q3UP24 whole entry, the tested form may be a part): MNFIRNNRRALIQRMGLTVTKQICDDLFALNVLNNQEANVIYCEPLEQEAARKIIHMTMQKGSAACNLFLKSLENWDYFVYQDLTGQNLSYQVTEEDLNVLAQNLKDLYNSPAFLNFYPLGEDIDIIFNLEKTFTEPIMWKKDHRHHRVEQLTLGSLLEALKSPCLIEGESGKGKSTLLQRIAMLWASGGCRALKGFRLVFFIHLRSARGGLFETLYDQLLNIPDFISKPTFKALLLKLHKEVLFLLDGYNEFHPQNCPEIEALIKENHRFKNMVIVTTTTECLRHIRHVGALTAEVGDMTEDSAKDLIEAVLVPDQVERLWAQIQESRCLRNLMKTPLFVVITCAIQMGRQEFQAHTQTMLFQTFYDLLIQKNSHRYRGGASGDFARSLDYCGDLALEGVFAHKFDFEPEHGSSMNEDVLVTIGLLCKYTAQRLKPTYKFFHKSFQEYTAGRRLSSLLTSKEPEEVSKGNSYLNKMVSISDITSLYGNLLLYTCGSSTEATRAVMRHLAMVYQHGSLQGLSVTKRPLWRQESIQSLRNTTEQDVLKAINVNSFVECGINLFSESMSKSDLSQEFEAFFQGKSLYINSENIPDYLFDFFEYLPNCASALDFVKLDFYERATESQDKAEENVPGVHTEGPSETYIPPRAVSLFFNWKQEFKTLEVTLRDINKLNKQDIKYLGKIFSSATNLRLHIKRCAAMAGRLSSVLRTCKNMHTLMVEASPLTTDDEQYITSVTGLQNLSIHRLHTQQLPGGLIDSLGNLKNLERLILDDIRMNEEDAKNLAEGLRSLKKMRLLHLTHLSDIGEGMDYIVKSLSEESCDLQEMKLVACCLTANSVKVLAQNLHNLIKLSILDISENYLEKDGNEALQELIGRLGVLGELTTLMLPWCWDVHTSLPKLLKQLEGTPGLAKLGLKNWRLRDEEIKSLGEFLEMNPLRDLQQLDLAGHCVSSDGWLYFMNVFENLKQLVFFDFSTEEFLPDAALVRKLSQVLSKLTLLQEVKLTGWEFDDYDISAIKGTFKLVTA
NLR family CARD domain-containing protein 4 (Mus musculus), sequence (Q3UP24 whole entry, the tested form may be a part): as above
NACHT, LRR and PYD domains-containing protein 3 (Homo sapiens, UniProt Q96P20), sequence (Q96P20 whole entry, the tested form may be a part): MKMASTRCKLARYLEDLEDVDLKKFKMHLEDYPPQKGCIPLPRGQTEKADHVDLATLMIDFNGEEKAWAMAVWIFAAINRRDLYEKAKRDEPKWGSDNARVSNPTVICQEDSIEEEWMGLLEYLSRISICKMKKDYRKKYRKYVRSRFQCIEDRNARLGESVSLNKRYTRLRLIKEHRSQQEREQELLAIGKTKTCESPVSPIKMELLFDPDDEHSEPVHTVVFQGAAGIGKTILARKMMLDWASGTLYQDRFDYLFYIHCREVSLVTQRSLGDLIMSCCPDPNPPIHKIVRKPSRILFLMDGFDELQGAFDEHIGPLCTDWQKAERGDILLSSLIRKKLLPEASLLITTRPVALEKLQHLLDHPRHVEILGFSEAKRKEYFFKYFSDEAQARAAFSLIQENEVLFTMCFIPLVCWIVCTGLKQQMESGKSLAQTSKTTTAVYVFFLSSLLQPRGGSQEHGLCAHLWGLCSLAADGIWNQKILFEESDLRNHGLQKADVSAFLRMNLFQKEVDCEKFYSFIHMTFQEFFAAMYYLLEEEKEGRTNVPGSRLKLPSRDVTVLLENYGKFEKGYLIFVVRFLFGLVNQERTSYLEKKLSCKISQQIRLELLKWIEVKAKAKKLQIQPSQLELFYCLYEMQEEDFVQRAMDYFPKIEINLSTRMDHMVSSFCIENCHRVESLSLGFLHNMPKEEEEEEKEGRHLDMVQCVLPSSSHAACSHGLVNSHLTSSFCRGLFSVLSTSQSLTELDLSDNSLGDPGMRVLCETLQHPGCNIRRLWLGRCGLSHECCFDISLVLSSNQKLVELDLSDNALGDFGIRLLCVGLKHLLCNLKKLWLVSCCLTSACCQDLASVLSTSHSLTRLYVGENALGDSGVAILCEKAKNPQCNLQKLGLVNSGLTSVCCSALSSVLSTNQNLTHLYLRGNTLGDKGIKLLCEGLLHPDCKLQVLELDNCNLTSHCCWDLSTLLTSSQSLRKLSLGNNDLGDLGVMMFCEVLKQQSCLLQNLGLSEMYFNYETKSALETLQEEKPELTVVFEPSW

Compound | IC50 [1] | Activity (J774.A1) | Activity (HEK293) | Activity [2] | Activity [3] | also measured
C#CCNS(=O)(=O)c1ccc(CCN(Cc2cc(Cl)ccc2OCC#C)C(=O)Cc2ccsc2)cc1 | 210 nM | 95.5% | 94.8% | – | – | –
C#CCNS(=O)(=O)c1ccc(CCN(Cc2ccco2)C(=O)Cc2ccsc2)cc1 | 2490 nM | 112.9% | 96.4% | 76.2% | 89.4% | –
CC(C)(C)c1coc(S(=O)(=O)NC(=O)Nc2c3c(cc4c2CCC4)CCC3)c1 | – | – | – | – | – | viability at 4 h, 10 µM [4]: 94.9%; viability at 4 h, 10 µM [5]: 95.2%
C#CCS(=O)(=O)c1ccc(CCN(Cc2cc(Cl)ccc2OCCC)C(=O)Cc2ccsc2)cc1 | 190 nM | 81.1% | 88.7% | 0% | 0% | –
C#CCNS(=O)(=O)c1ccc(CCN(Cc2cc(Cl)ccc2OCCC)C(=O)c2csc3c2CCCC3)cc1 | 510 nM | 93.7% | 95.9% | – | – | –
C#CCNS(=O)(=O)c1ccc(CCN(Cc2cc(Cl)ccc2OCCC)C(=O)c2ccc(F)cc2)cc1 | 120 nM | 96.3% | 91.6% | 101% | 67.6% | IC50 [6]: > 10000 nM; IC50 [7]: > 10000 nM; IC50 [8]: 910 nM; Kd [9]: 84 nM; inhibition in vivo at 10 mg/kg [10]: 75%
C#CCNS(=O)(=O)c1ccc(CCN(Cc2cccc3c2OCO3)C(=O)Cc2ccc(F)cc2)cc1 | 190 nM | 96.8% | 96.2% | 102% | 59.1% | –
C#CCNS(=O)(=O)c1ccc(CCN(Cc2ccccc2OCCC)C(=O)Cc2ccsc2)cc1 | 790 nM | 100.2% | 98.9% | 70.1% | 61.4% | –
C#CCNS(=O)(=O)c1ccc(CCN(Cc2cc(Cl)ccc2[N+](=O)[O-])C(=O)Cc2ccsc2)cc1 | 300 nM | 98.7% | 96.2% | 78.9% | 82.7% | –
C#CCNS(=O)(=O)c1ccc(CCN(Cc2cc(Cl)ccc2OCCC)C(=O)Cc2ccc(F)cc2)cc1 | 280 nM | 102.2% | 90.6% | – | – | –
C#CCNS(=O)(=O)c1ccc(CCN(Cc2cccc3c2OCO3)C(=O)c2ccc(F)cc2)cc1 | 930 nM | 99.5% | 93.4% | – | – | –
C#CCNS(=O)(=O)c1ccc(CCN(Cc2cc(Cl)ccc2OCCC)C(=O)CCCc2ccsc2)cc1 | 1170 nM | 97.9% | 89.1% | – | – | –
CCCOc1ccc(Cl)cc1CN(CCc1ccc(S(=O)(=O)N2CCC2)cc1)C(=O)c1csc2ccccc12 | 7580 nM | 107% | 100.7% | – | – | –
C#CCNS(=O)(=O)c1ccc(CCN(Cc2cc(Cl)ccc2OCCC)C(=O)c2csc3ccccc23)cc1 | 130 nM | 108.1% | 92.6% | 74.7% | 79.7% | –
C#CCNS(=O)(=O)c1ccc(CCN(Cc2cc(Cl)ccc2C(F)(F)F)C(=O)Cc2ccsc2)cc1 | 460 nM | 93.1% | 92.1% | – | – | –
C#CCNS(=O)(=O)c1ccc(CCN(Cc2cc(Cl)ccc2OCCC)C(=O)c2ccc([N+](=O)[O-])cc2)cc1 | 760 nM | 101.3% | 91.6% | – | – | –
C#CCNS(=O)(=O)c1ccc(CCN(Cc2ccsc2)Cc2cc(Cl)ccc2OCCC)cc1 | 750 nM | 90.5% | 82% | 28.9% | 49.8% | –
C#CCNS(=O)(=O)c1ccc(CCN(Cc2cc(Cl)ccc2N)C(=O)Cc2ccsc2)cc1 | 1130 nM | 93.5% | 92.9% | – | – | –
C#CCS(=O)(=O)c1ccc(CCN(Cc2cc(Cl)ccc2OCCC)C(=O)c2csc3ccccc23)cc1 | 440 nM | 85.7% | 95.6% | 29.1% | 0% | –
C#CCNS(=O)(=O)c1ccc(CCN(Cc2cccc3c2OCO3)C(=O)Cc2ccsc2)cc1 | 340 nM | 100% | 100.7% | 66.9% | 68.8% | –
CCCOc1ccc(Cl)cc1CN(CCc1ccc(S(=O)(=O)NCC(C)(C)C)cc1)C(=O)Cc1ccsc1 | 660 nM | 105.1% | – | 89.3% | 52.3% | –
C#CCNS(=O)(=O)c1ccc(CCN(Cc2cc(Cl)ccc2OCCC)C(=O)c2ccc(B3OC(C)(C)C(C)(C)O3)cc2)cc1 | 2490 nM | 88.1% | 95.2% | – | – | –
CCCOc1ccc(Cl)cc1CN(CCc1ccc(S(=O)(=O)N2CCOCC2)cc1)C(=O)Cc1ccsc1 | 470 nM | 103.4% | 88.3% | – | – | –
C#CCNS(=O)(=O)c1ccc(CCN(Cc2cc(Cl)ccc2OCCC)C(=O)c2ccc(O)cc2)cc1 | 620 nM | 83.5% | 92.1% | – | – | –
C#CCNS(=O)(=O)c1ccc(CCN(Cc2cc(Cl)ccc2OCCC)C(=O)c2ccc([18F])cc2)cc1 | – | – | – | – | – | Drug uptake [11]: 1.8 %ID/cc; Drug uptake [12]: Active; Drug uptake [13]: Active; Drug uptake [14]: Active; Drug uptake [15]: Active; Drug uptake [16]: Active; Drug uptake [17]: Active; Drug uptake [18]: Active; Drug uptake [19]: 30.1 %ID/cc; Drug uptake [20]: 22.6 %ID/cc; Drug uptake [21]: 18.1 %ID/cc; Drug uptake [22]: 20 %ID/cc; Drug uptake [23]: 12.3 %ID/cc; Drug uptake [24]: 4.7 %ID/cc; Drug uptake [25]: 4.2 %ID/cc; Drug uptake [26]: 12 %ID/cc
C#CCN(C)S(=O)(=O)c1ccc(CCN(Cc2cc(Cl)ccc2OCCC)C(=O)Cc2ccsc2)cc1 | 320 nM | 105.8% | 94.5% | 80.8% | 108% | IC50 [6]: > 10000 nM; IC50 [7]: > 10000 nM
CCCOc1ccc(Cl)cc1CN(CCc1ccc(S(=O)(=O)N2CCC2)cc1)C(=O)Cc1ccc(F)cc1 | 1350 nM | 106.1% | 103.6% | 109% | 102% | –
C#CCNS(=O)(=O)c1ccc(CCN(Cc2cc(Cl)ccc2O)C(=O)Cc2ccsc2)cc1 | 680 nM | 92% | 97.6% | 8% | 47.3% | –
C#CCNS(=O)(=O)c1ccc(CCN(Cc2cc(Cl)ccc2OCCC)C(=O)Cc2csc3ccccc23)cc1 | 210 nM | 105.4% | 99.8% | 85.6% | 96.7% | IC50 [6]: > 10000 nM; IC50 [7]: > 10000 nM
C#CCNS(=O)(=O)c1ccc(CCN(Cc2cc(Cl)ccc2OCCC)C(=O)Cc2ccsc2)cc1 | – | 106% | 99% | – | – | –
